What was measured:
weeds = assay: Post-emergence test (summary in words); type: in vivo, mono- and dicotyledonous weed plants; conditions: greenhouse, result in words
Description: (§1) Seeds of mono- and dicotyledonous weed and crop plants are placed in sandy loam soil in wood fiber pots, covered with soil and cultivated in a greenhouse under good growth conditions. 2 to 3 weeks after sowing, the trial plants are treated at the one-leaf stage. The test compounds, formulated as wettable powders (WP), are sprayed at various dosages with a water application rate of 800 I/ha (converted) and with addition of 0.2% of welting agent onto the green parts of the plants. After the trial plants have stood in the greenhouse for about 3 weeks under optimum growth conditions, the effect of the products is scored visually in comparison to untreated controls (herbicidal effect in percent (%): 100% effect=plants have died, 0% effect=like control plants).

Setaria = assay: Post-emergence test/greenhouse; type: in vivo; conditions: 80 g of ai/ha, WP sprayed at one-leaf stage, scored visually after about 3 weeks, 100% = plants have died, 0% = like control plants
Description: as §1

Echinochloa = assay: Post-emergence test/greenhouse; type: in vivo; conditions: 80 g of ai/ha, WP sprayed at one-leaf stage, scored visually after about 3 weeks, 100% = plants have died, 0% = like control plants
Description: as §1

Lolium = assay: Post-emergence test/greenhouse; type: in vivo; conditions: 80 g of ai/ha, WP sprayed at one-leaf stage, scored visually after about 3 weeks, 100% = plants have died, 0% = like control plants
Description: as §1

Stellaria = assay: Post-emergence test/greenhouse; type: in vivo; conditions: 80 g of ai/ha, WP sprayed at one-leaf stage, scored visually after about 3 weeks, 100% = plants have died, 0% = like control plants
Description: as §1

Sinapis = assay: Post-emergence test/greenhouse; type: in vivo; conditions: 80 g of ai/ha, WP sprayed at one-leaf stage, scored visually after about 3 weeks, 100% = plants have died, 0% = like control plants
Description: as §1

Cyperus = assay: Post-emergence test/greenhouse; type: in vivo; conditions: 80 g of ai/ha, WP sprayed at one-leaf stage, scored visually after about 3 weeks, 100% = plants have died, 0% = like control plants
Description: as §1

Amaranthus = assay: Post-emergence test/greenhouse; type: in vivo; conditions: 80 g of ai/ha, WP sprayed at one-leaf stage, scored visually after about 3 weeks, 100% = plants have died, 0% = like control plants
Description: as §1

Structure (SMILES) | effectiveness against weeds (weeds) | herbicidal effect in percent, Setaria (Setaria) [%] | herbicidal effect in percent, Echinochloa (Echinochloa) [%] | herbicidal effect in percent, Lolium (Lolium) [%] | herbicidal effect in percent, Stellaria (Stellaria) [%] | herbicidal effect in percent, Sinapis (Sinapis) [%] | herbicidal effect in percent, Cyperus (Cyperus) [%] | herbicidal effect in percent, Amaranthus (Amaranthus) [%]
COc1nc(C)nc(NC(=O)NS(=O)(=O)c2c(C3=NOCCO3)csc2C)n1 [Example 1, N-(4-methoxy-6-methyl-1,3,5-triazin-2-yl)-N′-(4-(5,6-dihydro-[1,4,2]-dioxazin-3-yl)-2-methylthien-3-ylsulfonyl)urea] | highly effective | 90 | 90 | 90 | 90 | 90 | 100 | 90
COc1nn(C)c(=O)n1C [Example 6] | highly effective | 80 | 80 | 90 | 90 | 80 | 80 | 90
CCOc1nn(C)c(=O)n1C [Example 7] | highly effective | 90 | 90 | 90 | 90 | 80 | 90 | 90

Reference: patent US20080300138A1, “Dioxazinyl-Substituted Thienylsulphonylaminocarbonyl Compounds” (priority 2004, published 2008)
